Results from PubChem BioAssay AID248 (DTP/NCI, 2004).
“And” between values parts separate entries of the source, which are not always exact repeats. Equal entries are not always repeated. Toxic doses and inconclusive results are not listed. No stated cut-off is given here; in the data, active means T/C of 150% or more; inactive means T/C below 125%.

System: L1210 leukemia ip in BDF1 mice, survival T/C
Assay: NCI In Vivo Anticancer Drug Screen. Data for tumor model L1210 Leukemia (intraperitoneal) in B6D2F1 (BDF1) mice
Conditions: endpoint: mean survival time, higher = longer survival
In short: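 Mice bearing the transplanted tumor received compound or vehicle. Survival of the treated group was divided by that of the vehicle-treated control group to give the ratio.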

[1] = dose: 100.0 mg/kg/injection, schedule: Q01DX009 (ip), vehicle: Klucel (hydroxypropylcellulose) (HPC)
[2] = dose: 200.0 mg/kg/injection, schedule: Q01DX009 (ip), vehicle: Klucel (hydroxypropylcellulose) (HPC)
[3] = dose: 25.0 mg/kg/injection, schedule: Q01DX009 (ip), vehicle: saline
[4] = dose: 25.0 mg/kg/injection, schedule: Q04DX003 (ip), vehicle: saline
[5] = dose: 50.0 mg/kg/injection, schedule: Q04DX003 (ip), vehicle: saline
[6] = dose: 100.0 mg/kg/injection, schedule: Q04DX003 (ip), vehicle: saline
[7] = dose: 100.0 mg/kg/injection, schedule: Q04DX003 (ip), vehicle: Klucel (hydroxypropylcellulose) (HPC)
[8] = dose: 200.0 mg/kg/injection, schedule: Q04DX003 (ip), vehicle: Klucel (hydroxypropylcellulose) (HPC)
[9] = dose: 400.0 mg/kg/injection, schedule: Q04DX003 (ip), vehicle: Klucel (hydroxypropylcellulose) (HPC)
[10] = dose: 100.0 mg/kg/injection, schedule: Q01DX001 (ip), vehicle: Klucel (hydroxypropylcellulose) (HPC)
[11] = dose: 200.0 mg/kg/injection, schedule: Q01DX001 (ip), vehicle: Klucel (hydroxypropylcellulose) (HPC)
[12] = dose: 400.0 mg/kg/injection, schedule: Q01DX001 (ip), vehicle: Klucel (hydroxypropylcellulose) (HPC)
[13] = dose: 50.0 mg/kg/injection, schedule: Q01DX009 (ip), vehicle: saline with Tween-80
[14] = dose: 100.0 mg/kg/injection, schedule: Q01DX009 (ip), vehicle: saline with Tween-80
[15] = dose: 100.0 mg/kg/injection, schedule: Q04DX003 (ip), vehicle: saline with Tween-80
[16] = dose: 200.0 mg/kg/injection, schedule: Q01DX009 (ip), vehicle: saline with Tween-80
[17] = dose: 200.0 mg/kg/injection, schedule: Q04DX003 (ip), vehicle: saline with Tween-80
[18] = dose: 400.0 mg/kg/injection, schedule: Q01DX009 (ip), vehicle: saline with Tween-80
[19] = dose: 400.0 mg/kg/injection, schedule: Q04DX003 (ip), vehicle: saline with Tween-80

Measured: T/C

CN(C)Cc1c(C=C(c2ccccc2)c2ccccc2)ccc2ccccc12
inactive: dose: 50.0 mg/kg/injection, schedule: Q01DX001 (ip), vehicle: carboxymethylcellulose (CMC) 94 % of control | dose: 100.0 mg/kg/injection, schedule: Q01DX001 (ip), vehicle: carboxymethylcellulose (CMC) 96 % of control | dose: 200.0 mg/kg/injection, schedule: Q01DX001 (ip), vehicle: carboxymethylcellulose (CMC) 94 % of control | dose: 400.0 mg/kg/injection, schedule: Q01DX001 (ip), vehicle: carboxymethylcellulose (CMC) 96 % of control

COc1cc([N+](=O)[O-])ccc1NC(=O)Nc1cc(C)ccn1
inactive: [1] 100 % of control | [2] 93 % of control

CC(C)(C)C1CC[N-]CC1.CC(C)(C)C1CC[N-]CC1.[Cl][Pt+2]([Cl])([Cl])[Cl]
inactive: dose: 12.5 mg/kg/injection, schedule: Q01DX009 (ip), vehicle: saline 96 % of control | dose: 12.5 mg/kg/injection, schedule: Q04DX003 (ip), vehicle: saline 97 % of control | [3] 92 % of control | [4] 90 % of control | [5] 93 % of control and 99 % of control | [6] 94 % of control and 97 % of control

Cc1ccc(S/N=C/c2c(O)ccc3ccccc23)cc1
inactive: dose: 100.0 mg/kg/injection, schedule: Q04DX002 (ip), vehicle: other 91 % of control | dose: 200.0 mg/kg/injection, schedule: Q04DX002 (ip), vehicle: other 102 % of control | dose: 400.0 mg/kg/injection, schedule: Q04DX002 (ip), vehicle: other 94 % of control

CC(=O)NOCc1ccc(Cl)cc1
inactive: [7] 100 % of control | [8] 95 % of control | [9] 95 % of control

O=C(Nc1ccc(Cl)c(Cl)c1)Oc1ccc(Cl)cc1C(=O)Nc1ccccc1
inactive: [1] 100 % of control | [2] 100 % of control | dose: 400.0 mg/kg/injection, schedule: Q01DX009 (ip), vehicle: Klucel (hydroxypropylcellulose) (HPC) 87 % of control

CC1=Nc2ccccc2/C1=C\c1c(C)[nH]c2ccccc12
inactive: dose: 25.0 mg/kg/injection, schedule: Q01DX009 (ip), vehicle: Klucel (hydroxypropylcellulose) (HPC) 97 % of control | dose: 50.0 mg/kg/injection, schedule: Q01DX009 (ip), vehicle: Klucel (hydroxypropylcellulose) (HPC) 97 % of control | dose: 50.0 mg/kg/injection, schedule: Q01DX009 (ip), vehicle: acetone 101 % of control | dose: 100.0 mg/kg/injection, schedule: Q01DX001 (ip), vehicle: saline 96 % of control | [1] 97 % of control | dose: 100.0 mg/kg/injection, schedule: Q04DX003 (ip), vehicle: acetone 96 % of control | dose: 200.0 mg/kg/injection, schedule: Q01DX001 (ip), vehicle: saline 101 % of control | [2] 97 % of control | dose: 200.0 mg/kg/injection, schedule: Q04DX003 (ip), vehicle: acetone 99 % of control | dose: 400.0 mg/kg/injection, schedule: Q01DX001 (ip), vehicle: saline 104 % of control

CC(=O)C1=C(O)C(c2ccccc2)c2ccccc21 (stereo not given)
inactive: [10] 108 % of control | [7] 100 % of control | [11] 103 % of control | [8] 103 % of control | [12] 100 % of control | [9] 95 % of control

Cc1cccc2c(C(=O)O)cc(-c3ccc(Cl)cc3)nc12
inactive: [13] 91 % of control

N#CCCNc1ccccc1
inactive: [14] 95 % of control | [15] 103 % of control | [16] 106 % of control | [17] 108 % of control | [18] 86 % of control | [19] 105 % of control

c1ccc(CCCSc2ccccc2)cc1
inactive: [14] 120 % of control | [15] 108 % of control | [16] 104 % of control | [17] 94 % of control | [19] 100 % of control

Nc1n[nH]c([N+](=O)[O-])n1
inactive: dose: 100.0 mg/kg/injection, schedule: Q04DX003 (ip), vehicle: saline sonified 100 % of control | dose: 200.0 mg/kg/injection, schedule: Q04DX003 (ip), vehicle: saline sonified 103 % of control | dose: 400.0 mg/kg/injection, schedule: Q04DX003 (ip), vehicle: saline sonified 109 % of control

O=Cc1[nH]c(=S)[nH]c(=O)c1Cc1cccc2ccccc12
inactive: [14] 97 % of control | [16] 101 % of control

c1coc(NC2CCCCC2)n1
inactive: [14] 100 % of control | [16] 92 % of control | [18] 86 % of control

Cc1ccc(C(CC(=O)NN)NN)c(O)c1 (stereo not given)
inactive: [13] 104 % of control | [14] 101 % of control | [16] 108 % of control

CC(=O)CCc1c(C)nc(Nc2nc3cc(C)c(C)cc3[nH]2)nc1C
inactive: [7] 93 % of control | [8] 96 % of control | [9] 93 % of control

CCCCCCCCCCCCCCCCNS(=O)(=O)c1ccc(Br)cc1
inactive: [10] 96 % of control | [7] 91 % of control | [11] 93 % of control | [8] 95 % of control | [12] 96 % of control | [9] 103 % of control

CCOc1ccc(N=Nc2c(C)nn(C(N)=S)c2-c2ccccc2)cc1
inactive: dose: 10.0 mg/kg/injection, schedule: Q01DX001 (ip), vehicle: saline 103 % of control | dose: 20.0 mg/kg/injection, schedule: Q01DX001 (ip), vehicle: saline 94 % of control | dose: 40.0 mg/kg/injection, schedule: Q01DX001 (ip), vehicle: saline 88 % of control

O=C(O)Cc1ccccc1
inactive: dose: 18.75 mg/kg/injection, schedule: Q01DX009 (ip), vehicle: acetone 95 % of control | dose: 37.5 mg/kg/injection, schedule: Q01DX009 (ip), vehicle: acetone 90 % of control | dose: 37.5 mg/kg/injection, schedule: Q04DX003 (ip), vehicle: acetone 96 % of control | dose: 75.0 mg/kg/injection, schedule: Q01DX001 (ip), vehicle: carboxymethylcellulose (CMC) 96 % of control | dose: 75.0 mg/kg/injection, schedule: Q01DX001 (ip), vehicle: saline 95 % of control | dose: 75.0 mg/kg/injection, schedule: Q01DX009 (ip), vehicle: acetone 90 % of control | dose: 75.0 mg/kg/injection, schedule: Q04DX003 (ip), vehicle: acetone 91 % of control | dose: 150.0 mg/kg/injection, schedule: Q01DX001 (ip), vehicle: carboxymethylcellulose (CMC) 94 % of control | dose: 150.0 mg/kg/injection, schedule: Q01DX001 (ip), vehicle: saline 93 % of control | dose: 150.0 mg/kg/injection, schedule: Q04DX003 (ip), vehicle: acetone 98 % of control

CNc1n[n+](-c2ccccc2)no1
inactive: [3] 93 % of control | [4] 111 % of control | dose: 50.0 mg/kg/injection, schedule: Q01DX009 (ip), vehicle: saline 109 % of control | [5] 104 % of control | [6] 97 % of control and 101 % of control

CCCCCCCCCCCCCCCSc1ccc2ccccc2c1
inactive: [7] 92 % of control | [8] 91 % of control | [9] 92 % of control
